These results are taken from patent US20120035356A1, “Hydroxycarboxylic Acids and Salts” (priority 2006, published 2012).

For series [1] the following is noted: cited from earlier work.
The next series is described as follows: Water solubility. Conditions: at the higher pH. Format: physicochemical.
Series [2] in a line: Corrosion test NACE TM0169-95 modified by PNS, steel coupons in 3% NaCl solution. Particulars: Table 1; for Corrosion rate MPY: 72 h; for Percent Effectiveness: NaCl control 100%, water 0%, lower is better, 30% or less acceptable (PNS); for Corrected corrosion rate MPY^1: distilled water MPY subtracted. Also noted: Percent Effectiveness: scale not given: direction of the effect not stated beside the values. The procedure: Corrosion tests were performed according to the National Association of Corrosion Engineers (NACE) Standard TM0169-95 modified by the Pacific Northwest Snowfighters (PNS) (NACE TM0169-95).
The test procedure was modified to use 30 mL of a 3% solution of inhibitor per square inch of total coupon surface area. Stamped and numbered steel TSI coupons which met the ASTM F436 Type 1 requirement with a Rockwell hardness of C 38-45 were used for each corrosion test. Approximate coupon dimensions are 1.37 in. outer diameter, 0.60 in. inner diameter, and 0.10 in. thickness with a density of 7.85 grams per cubic centimeter. Coupons were placed in a sealed container on a rock tumbler with a non-abrasive cleanser for 30 minutes to remove surface grease and impurities. Coupons were wiped with acetone to remove any additional grease, rinsed with deionized water, and then acid etched with an 18.5% HCl solution for approximately 3 minutes. The coupons were rinsed with tap water, rinsed with deionized water, patted dry and placed in chloroform for 15 minutes. The coupons were removed from chloroform and allowed to air dry in a ventilated hood for 1 hour. Each coupon was then weighed to the nearest 0.1 mg. at least two times to ensure a consistent weight.
Distilled water was used to prepare each solution and control standard. Sodium chloride was used as the salt standard. A 3% solution of NaCl (EMD, analyzed reagent grade, 9.6 g) in distilled water (310.4 g) was prepared as a salt standard (w/v). Each test solution was prepared with 3% NaCl, 310.4 g distilled water, and a corrosion inhibitor. Two NaCl salt solutions containing each inhibitor were prepared at 3% and 1.5% inhibitor concentration (by weight of salt, 288 mg and 144 mg, respectively). Approximately 300 mL of each solution in distilled water was transferred to a clean 500 mL Erlenmeyer flask equipped with a rubber stopper which had been drilled to allow a thin line attached to a plastic rod to run through it. The pH of each solution was measured and recorded. Aqueous 5% sodium hydroxide was carefully added (1-2 drops) until a basic pH was established for each test solution. The pH of the NaCl and H2O control solutions was not altered. Three coupons were attached to a plastic bar suspended within each flask through the stopper hole. A timed device raised and lowered the test coupons so they were immersed in the test solution for 10 minutes of each hour for a 72 hour period. Tests were conducted at room temperature.
After the 72 h. test period, the coupons were quickly removed from solution, rinsed under tap water and vigorously rubbed to remove any surface corrosion material. The coupons were then placed in shallow evaporating dishes containing a cleaning solution of concentrated hydrochloric acid, stannous chloride (50 g/liter), and antimony chloride (20 g/liter) for 15 minutes. The coupons were removed from the acid solution, rinsed vigorously under tap water, and returned to the cleaning solution for an additional 15 minutes. The coupons were again removed from the acid solution, rinsed under tap water, rinsed under deionized water, patted dry, and placed in a vessel containing chloroform for 10 minutes. The coupons were removed from the chloroform and allowed to air dry under a ventilated hood for 1 hour before being weighed to the nearest 0.1 mg. Each coupon was weighed twice to ensure a true final weight. Corrosion rate in mils per year (MPY) was calculated from the measured weight loss of each coupon using the following equation: […]
The corrosion value for the control solution of distilled H2O was also calculated. The MPY value of the distilled water was subtracted from the MPY value of each sample solution containing 3% NaCl to provide a corrected MPY value, which is noted as MPY′.

Where [3] appears, read: 1.5 weight % inhibitor in 3% NaCl, room temperature, >pH 8 except sodium D-gluconate (pH 6.1).
The mark [4] stands for this setting: 1.5 weight % inhibitor in 3% NaCl.
Where [5] appears, read: 3.0 weight % inhibitor in 3% NaCl, >pH 8 except sodium D-gluconate (pH 6.1) and commercial liquid gluconate product (pH 3.2).
Setting [6] is: 3.0 weight % inhibitor in 3% NaCl.

Read-outs that look alike come from different tables or passages of the source.

As to `O=C(O)[C@@H](O)[C@@H](O)[C@H](O)[C@@H](O)C(=O)[O-].[K+]` [Sample III, monopotassium D-glucarate], the water solubility entry in series [1] is “about 10%”. In addition, the “Water reduction (% of control)” value is on record as 5.04 % of control (Type A (water reducing) trial, admixture dose 2.4-2.5 oz/cwt) and 5.04 % of control (Type D (water reducing/set retarding) trial, admixture dose 2.9-5.0 oz/cwt). Further, the “Compressive Strength (% of control)” value runs as follows: (Type A trial, 7 days) “(125%) % of control”; (Type D trial, 7 days) “(117%) % of control”; (Type D trial, 28 days) “(118%) % of control”.
In the case of `O=C([O-])[C@@H](O)[C@@H](O)[C@H](O)[C@@H](O)C(=O)[O-].[Ca+2]` [calcium D-glucarate], the “water solubility (in words)” value in series [1] is on record as “very insoluble in water”.
As to `O=C([O-])[C@@H](O)[C@@H](O)[C@H](O)[C@@H](O)C(=O)[O-].[K+].[K+]` [dipotassium D-glucarate hydrate, dipotassium D-glucarate], in series [1], the “water solubility (in words)” value was “readily soluble in water”.
In the case of `O=C([O-])[C@H](O)[C@@H](O)[C@H](O)[C@H](O)CO.[Na+]` [sodium D-gluconate, reference compound], the water solubility entry in the series “Water solubility” was “ca. 60%”. Besides, the “Corrosion rate MPY” value in series [2] (setting [3]) came out at 24.596 MPY; in series [2] (setting [5]), 22.786 MPY. In addition, the “Percent Effectiveness” value in series [2] (setting [4]) is given as 36.98%; in series [2] (setting [6]), 33.45%; in series [2] (3.0 weight % inhibitor in 3% NaCl, listed as gluconate) it was above 30%. The “Corrected corrosion rate MPY^1” value in series [2] (setting [4]) is reported as 20.313 MPY; in series [2] (setting [6]) it was 18.503 MPY.
Turning to `O=C([O-])[C@@H](O)[C@@H](O)[C@H](O)[C@@H](O)C(=O)[O-].[K+].[Na+]` [sodium potassium D-glucarate], the “water solubility (in words)” value in series [1] is “readily soluble in water”. For the same compound, the water solubility entry in “Water solubility” was “ca. 70%”. In addition, the “Corrosion rate MPY” value is on record as 23.726 MPY in series [2] (setting [3]) and 20.939 MPY in series [2] (setting [5]). In addition, the “Percent Effectiveness” value in series [2] (setting [4]) is given as 35.28%; in series [2] (setting [6]), 29.84%; in series [2] (3.0 weight % inhibitor in 3% NaCl, listed as glucarate), around 30%. Besides, the “Corrected corrosion rate MPY^1” value in series [2] (setting [4]) came out at 19.443 MPY; in series [2] (setting [6]), 16.656 MPY.
